This is an account of results in ChEMBL document CHEMBL5608170, “An insight into sustainable and green chemistry approaches for the synthesis of quinoline derivatives as anticancer agents” (Eur J Med Chem, 2024).

pIC50: −log10 of the molar value. Converted amounts (≈) assume the structure as drawn. *1 amine or outer side, *2 acyl side, *3 side chain or, on linkers, in order; H or OH if unused. Where a SMILES comes first, the peptide text is derived from it. Bridges are numbered along the chain shown (N, C = ends). Roman numbers before positions name the chains, in order. [ ]: non-standard residue; d: D form. Actinocin(1to9) = Cc1c2oc3c(C)ccc(C(=O)[*:2])c3nc-2c(C(=O)[*:1])c(N)c1=O; NMeV = CN[C@H](C(=O)O)C(C)C; Sar = CNCC(=O)O

One experiment has as its system HCT-116. The experiment can be described thus: Cytotoxicity against human HCT-116 cells assessed as reduction in cell viability incubated for 24 hrs by MTT assay. Conditions: HCT-116, 24 h. Format: functional, cell-based.
For another experiment, the system named is HepG2. The experiment in a line: Cytotoxicity against human HepG2 cells assessed as reduction in cell viability incubated for 24 hrs by MTT assay. Format: functional, cell-based. Conditions: HepG2, 24 h.
The subject of experiment [1] is MCF7. The experiment can be described thus: Cytotoxicity against human MCF7 cells assessed as reduction in cell viability incubated for 24 hrs by MTT assay. It counts as functional, cell-based. Conditions: MCF7, 24 h.
Experiment [2] relates to A549. The experiment in a line: Cytotoxicity against human A549 cells assessed as reduction in cell viability incubated for 24 hrs by MTT assay. It counts as functional, cell-based. Conditions: A549, 24 h.
The next experiment has as its system MDA-MB-231. The experiment in a line: Cytotoxicity against human MDA-MB-231 cells assessed as reduction in cell viability incubated for 48 hrs by MTT assay. It counts as functional, cell-based. Conditions: MDA-MB-231, 48 h.
The subject of the next experiment is HT-29. The experiment in a line: Cytotoxicity against human HT-29 cells assessed as reduction in cell viability incubated for 72 hrs by MTT assay. It counts as functional, cell-based. Conditions: HT-29, 72 h.
The subject of experiment [3] is A549. The experiment can be described thus: Cytotoxicity against human A549 cells assessed as reduction in cell viability incubated for 72 hrs by MTT assay. Format: functional, cell-based. Conditions: A549, 72 h.
Experiment [4] relates to A549. The experiment in a line: Antiproliferative activity against human A549 cells assessed as reduction in cell viability by MTT assay. It counts as functional, cell-based.
The next experiment has as its system NCI-H460. The experiment in a line: Antiproliferative activity against human NCI-H460 cells assessed as reduction in cell viability by MTT assay. It counts as functional, cell-based.
For the next experiment, the system named is K562. The experiment in a line: Growth inhibition of human K562 cells at 10 uM incubated for 24 hrs by MTT assay. The note with it: read-out: GI. It counts as functional.
A further experiment relates to PC-3. The experiment in a line: Cytotoxicity against human PC-3 cells assessed as reduction in cell growth measured for 48 hrs by MTT assay. It counts as functional, cell-based. Conditions: PC-3, 48 h.
The subject of a further experiment is DU-145. The experiment in a line: Cytotoxicity against human DU-145 cells assessed as reduction in cell growth measured for 48 hrs by MTT assay. It counts as functional, cell-based. Conditions: DU-145, 48 h.
In experiment [5] the test system is MCF7. The experiment can be described thus: Cytotoxicity against human MCF7 cells assessed as reduction in cell viability by MTT assay. It counts as functional, cell-based.
A further experiment deals with SW1573. The experiment can be described thus: Growth inhibition of human SW1573 cells. Format: functional.
For a further experiment, the system named is WiDr. The experiment can be described thus: Growth inhibition of human WiDr cells. Format: functional.
The next experiment concerns HBL-100. The experiment in a line: Growth inhibition of human HBL-100 cells. Format: functional.
Another experiment concerns T47D. The experiment can be described thus: Growth inhibition of human T47D cells. It counts as functional.
For experiment [6], the system named is A549. The experiment can be described thus: Growth inhibition of human A549 cells. Format: functional.
The next experiment deals with HeLa. The experiment can be described thus: Growth inhibition of human HeLa cells. It counts as functional.
A further experiment deals with B16-F10. The experiment in a line: Cytotoxicity against mouse B16-F10 cells assessed as reduction in cell viability incubated for 48 hrs by MTT assay. It counts as functional, cell-based. Conditions: B16-F10, 48 h.

Take `N#CC1=C(N)Oc2c(cc(Cl)c3cccnc23)C1c1cccc(Cl)c1Cl` (stereo unspecified): the concentration for half-maximal inhibition (IC50) in the experiment on HCT-116 was found to be 7.94 µg/mL (≈ 19.7 µM); with HepG2, 1.48 µg/mL (≈ 3.68 µM); in the experiment on MCF7 [1], 2.47 µg/mL (≈ 6.13 µM); with A549 [2] it was 15.6 µg/mL (≈ 38.7 µM).
For the compound `COc1ncccc1-c1cc(-c2cn(Cc3ccccc3F)nn2)cc2ccc(C)nc12`, the pIC50 with MDA-MB-231 was 4.70.
On to `N#CC1=C(N)Oc2c(ccc3cccnc23)C1c1cccc(Cl)c1` (stereo unspecified), for which the IC50 in the experiment on HCT-116 was 1.35 µg/mL (≈ 4.04 µM); with HepG2, 1.87 µg/mL (≈ 5.6 µM); with MCF7 [1], 1.42 µg/mL (≈ 4.25 µM); in the experiment with A549 [2] it was 1.23 µg/mL (≈ 3.69 µM).
In the same order, the values of `N#CC1=C(N)Oc2c(cc(Cl)c3cccnc23)C1c1cccc(Cl)c1` (stereo unspecified) are 3.04 µg/mL (≈ 8.26 µM), 0.7 µg/mL (≈ 1.9 µM), 0.9 µg/mL (≈ 2.44 µM) and 2.67 µg/mL (≈ 7.25 µM).
Consider `COc1cc(/C=C2\OCc3nc4ccccc4c(C)c3C2=O)cc(OC)c1OC`, for which the figures for the IC50 in the experiment on HT-29 and with A549 [3] were 6.69 µg/mL (≈ 17.1 µM) and 3.68 µg/mL (≈ 9.4 µM), respectively.
Turning to `COc1ccc(Nc2nc3ccccc3c(Nc3ccc(OC)cc3)c2[N+](=O)[O-])cc1`, the results for the pIC50 in the experiment on A549 [4] and in the experiment with NCI-H460 were 4.95 and 5.15, respectively.
In the case of `COc1ccc(-c2cn3c4c(cccc24)CCC3)cc1`, in the experiment with K562, the inhibition of growth at 10 µM came out at 66%.
As for `COc1cc(/C=C2\OCc3nc4ccccc4c(-c4ccccc4)c3C2=O)cc(OC)c1OC`, the values for the IC50 with HT-29 and with A549 [3] were 7.69 µg/mL (≈ 17 µM) and 4.82 µg/mL (≈ 10.6 µM), respectively.
Consider `O=C1N(c2ccccc2S)c2[nH]c(=O)[nH]c(=O)c2C12c1ccccc1Nc1c2[nH]c(=O)[nH]c1=O` (stereo unspecified), for which the pIC50 was 4.74 with PC-3 and 4.75 in the experiment with DU-145.
On to `COC(=O)c1c(C(F)(F)F)nc2c(c1-c1ccc(S(=O)(=O)c3ccccc3)cc1)C(=O)CC(C)(C)C2`, for which the pIC50 in the experiment on MCF7 [5] is 8.70.
Regarding `N#CC1=C(N)Oc2c(cc(Cl)c3cccnc23)C1c1ccc(Cl)cc1Cl` (stereo unspecified), the IC50 in the experiment on HCT-116 was found to be 3.01 µg/mL (≈ 7.48 µM); in the experiment with HepG2 it was 0.87 µg/mL (≈ 2.16 µM); with MCF7 [1], 1.18 µg/mL (≈ 2.93 µM); in the experiment with A549 [2] it was 1.79 µg/mL (≈ 4.45 µM).
For `COc1cc2nccc(Oc3ccc(NC(=O)C4(C(=O)Nc5ccc(F)cc5)CC4)cc3)c2cc1OC` [CABOZANTINIB], the GI50 is 6 µM in the experiment with SW1573; 14 µM in the experiment with WiDr; 17 µM in the experiment on HBL-100; 16 µM with T47D; 9.5 µM with A549 [6]; 11 µM with HeLa.
Consider `COc1cc2c(Oc3ccc4[nH]c(C)cc4c3F)ccnc2cc1OCC1(N)CC1` [CATEQUENTINIB], for which the pIC50 in the experiment on MDA-MB-231 was 4.77.
Take `Cc1c2oc3c(C)ccc(C(=O)N[C@@H]4C(=O)N[C@H](C(C)C)C(=O)N5CCC[C@H]5C(=O)N(C)CC(=O)N(C)[C@@H](C(C)C)C(=O)O[C@@H]4C)c3nc-2c(C(=O)N[C@@H]2C(=O)N[C@H](C(C)C)C(=O)N3CCC[C@H]3C(=O)N(C)CC(=O)N(C)[C@@H](C(C)C)C(=O)O[C@@H]2C)c(N)c1=O` [DACTINOMYCIN] (I: T[dV]P[Sar][NMeV] / II: T[dV]P[Sar][NMeV]; ester I:1-I:C, II:1-II:C; linker I:N-II:N via Actinocin(1to9)): the pIC50 in the experiment on B16-F10 is 4.87.
For the compound `COc1cc2nccc(Oc3ccc(NC(=O)NC4CC4)c(Cl)c3)c2cc1C(N)=O` [LENVATINIB], the GI50 with SW1573 was 8 µM; with WiDr, 19 µM; in the experiment on HBL-100 it was 10 µM; with T47D, 10 µM; in the experiment on A549 [6], 12 µM; in the experiment on HeLa, 4 µM.
`CNC(=O)c1cccc2cc(Oc3ccnc4cc(OCC5(N)CC5)c(OC)cc34)ccc12` [LUCITANIB]: in the experiment with B16-F10, the pIC50 is 4.79.
For `CCOc1cc2ncc(C#N)c(Nc3ccc(OCc4ccccn4)c(Cl)c3)c2cc1NC(=O)/C=C/CN(C)C` [NERATINIB], in the experiment on HBL-100, the GI50 was determined as 1.6 µM.
For the compound `CCOc1cc2ncc(C#N)c(Nc3ccc(F)c(Cl)c3)c2cc1NC(=O)/C=C/CN(C)C` [PELITINIB], the GI50 in the experiment on SW1573 is 20 µM; with WiDr it was 12 µM; in the experiment on HBL-100, 19 µM; in the experiment with T47D, 16 µM; in the experiment with A549 [6] it was 7.7 µM; in the experiment with HeLa, 8.3 µM.
`COC1=C(N)C(=O)c2nc(-c3nc(C(=O)O)c(C)c(-c4ccc(OC)c(OC)c4O)c3N)ccc2C1=O` [STREPTONIGRIN]: the pIC50 with MDA-MB-231 was 4.52.
Consider `COc1cc2nccc(Oc3ccc(NC(=O)Nc4cc(C)on4)c(Cl)c3)c2cc1OC` [TIVOZANIB], for which the pIC50 in the experiment with B16-F10 was 4.73.
